From US11566057B2, “Long-acting co-agonists of the glucagon and GLP-1 receptors” (Merck Sharp & Dohme Corp., priority 2017, dated 2023) come the findings set out here.

Molecules are shown by their SMILES. Where two headings read alike, the source gives them in different places. Numbered stars: 1 amine (or outer) side, 2 acyl side, 3 side chain; on linkers, the order of the positions; unused ones are H or OH. Square brackets hold non-standard residues; d marks the D form. Side chains are listed from the residue outwards. Peptide text beside a SMILES is read from it. * marks the point of attachment. C18 diacid = O=C(O)CCCCCCCCCCCCCCCCC(=O)*; γGlu = O=C(O)[C@H](CCC(=O)[*:2])N[*:1]; Met(O2) = CS(=O)(=O)CC[C@H](N)C(=O)O; αMeD = C[C@](N)(CC(=O)O)C(=O)O; AEEA = NCCOCCOCC(=O)O; Aib = CC(C)(N)C(=O)O

One assay addresses T1, human GLP1R (Homo sapiens, UniProt P43220).
T1 construct: expressed in transfected cells; growth medium holds Blasticidin and Hygromycin
Briefly: cAMP activity assay at the GLP-1 receptor (GLP1R). The class given is cell-based. The method, boiled down:
(§1)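 Peptides serially diluted from DMSO (10 points) and added to frozen-stock cells bearing human GLP1R (10,000 cells/well) or GCGR (30,000 cells/well), 1 h at RT, dark. EC50 by four-parameter logistic fit of HitHunter cAMPXS luminescence, read following overnight RT incubation.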

The target in the next assay is T2, human GCGR (Homo sapiens, UniProt P47871).
T2 construct: expressed in transfected cells; growth medium holds Blasticidin and Hygromycin
Briefly: cAMP activity assay at the Glucagon receptor (GCGR). The class given is cell-based. Conditions: for hGCGR/hGLP1R (hTone): ratio of GCGR EC50 to GLP1R EC50. The method, boiled down:
as §1

Setting [1] is: cells expressing human GLP1R, cAMP production, buffer with or without 20% human serum (not stated which), read-out: GLP1R EC50 human.
The mark [2] stands for this setting: cells expressing human GCGR, cAMP production, buffer with or without 20% human serum (not stated which), read-out: GCGR EC50 human.
The mark [3] stands for this setting: summary statement: EC50 at each of the glucagon and GLP-1 receptors, read-out: EC50 at the GLP-1 receptor.
Setting [4] is: summary statement: EC50 at each of the glucagon and GLP-1 receptors, read-out: EC50 at the glucagon receptor.

T1 sequence (P43220 24-463): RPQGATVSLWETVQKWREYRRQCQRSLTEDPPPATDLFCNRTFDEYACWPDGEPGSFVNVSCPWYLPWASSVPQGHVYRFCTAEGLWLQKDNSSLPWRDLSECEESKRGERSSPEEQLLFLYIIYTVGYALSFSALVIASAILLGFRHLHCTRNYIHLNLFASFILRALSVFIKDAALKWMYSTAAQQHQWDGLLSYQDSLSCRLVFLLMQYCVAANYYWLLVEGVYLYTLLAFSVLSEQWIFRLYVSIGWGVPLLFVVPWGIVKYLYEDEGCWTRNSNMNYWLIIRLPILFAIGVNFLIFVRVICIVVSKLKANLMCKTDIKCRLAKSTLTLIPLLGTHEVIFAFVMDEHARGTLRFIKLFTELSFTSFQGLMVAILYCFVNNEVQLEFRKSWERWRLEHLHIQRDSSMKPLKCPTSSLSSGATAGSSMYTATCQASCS
T2 sequence (P47871 26-477): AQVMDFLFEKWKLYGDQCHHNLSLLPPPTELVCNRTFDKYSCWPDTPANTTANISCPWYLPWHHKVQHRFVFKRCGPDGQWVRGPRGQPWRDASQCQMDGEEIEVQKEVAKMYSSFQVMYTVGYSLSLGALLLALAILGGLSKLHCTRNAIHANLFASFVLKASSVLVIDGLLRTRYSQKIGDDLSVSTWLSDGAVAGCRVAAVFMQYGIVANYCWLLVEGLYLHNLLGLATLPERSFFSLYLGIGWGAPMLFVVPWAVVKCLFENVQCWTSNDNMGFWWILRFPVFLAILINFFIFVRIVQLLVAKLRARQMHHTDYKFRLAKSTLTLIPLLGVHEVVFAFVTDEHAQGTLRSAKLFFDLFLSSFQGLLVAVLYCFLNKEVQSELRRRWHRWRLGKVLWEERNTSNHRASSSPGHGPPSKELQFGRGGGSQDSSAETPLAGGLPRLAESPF

What is called EC50 is the concentration giving half of the maximal effect. `CC(C)C[C@H](NC(=O)[C@H](Cc1ccc(O)cc1)NC(=O)[C@H](CCCCN)NC(=O)[C@H](CO)NC(=O)[C@H](Cc1ccc(O)cc1)NC(=O)[C@H](CC(=O)O)NC(=O)[C@H](CO)NC(=O)[C@@H](NC(=O)[C@H](Cc1ccccc1)NC(=O)[C@@H](NC(=O)CNC(=O)[C@H](CCC(N)=O)NC(=O)C(C)(C)NC(=O)[C@@H](N)Cc1c[nH]cn1)[C@@H](C)O)[C@@H](C)O)C(=O)N[C@@H](CC(=O)O)C(=O)N[C@@H](CCC(=O)O)C(=O)N[C@@H](CCCNC(=N)N)C(=O)N[C@@H](C)C(=O)N[C@@H](C)C(=O)N[C@@H](CCCCN)C(=O)N[C@@H](CC(=O)O)C(=O)N[C@@H](Cc1ccccc1)C(=O)N[C@H](C(=O)N[C@@H](CCCCNC(=O)COCCOCCNC(=O)COCCOCCNC(=O)CC[C@H](NC(=O)CCCCCCCCCCCCCCCCC(=O)O)C(=O)O)C(=O)N[C@@H](Cc1c[nH]c2ccccc12)C(=O)N[C@@H](CC(C)C)C(=O)N[C@@H](CCS(C)(=O)=O)C(=O)N[C@@H](CC(=O)O)C(=O)N[C@H](C(N)=O)[C@@H](C)O)C(C)C` [TP701] (H-H[Aib]QGTFTSDYSKYLDERAAKDFVK([AEEA-AEEA-γGlu-C18 diacid])WL[Met(O2)]DT-NH2): the EC50 was 0.18 nM at human GLP1R (setting [1]) and greater than 4.9 nM at human GCGR (setting [2]).
As for `CC(C)C[C@H](NC(=O)[C@H](Cc1ccc(O)cc1)NC(=O)[C@H](CCCCN)NC(=O)[C@H](CO)NC(=O)[C@H](Cc1ccc(O)cc1)NC(=O)[C@H](CC(=O)O)NC(=O)[C@H](CO)NC(=O)[C@@H](NC(=O)[C@H](Cc1ccccc1)NC(=O)[C@@H](NC(=O)CNC(=O)[C@H](CCC(N)=O)NC(=O)C(C)(C)NC(=O)[C@@H](N)Cc1c[nH]cn1)[C@@H](C)O)[C@@H](C)O)C(=O)N[C@@H](CC(=O)O)C(=O)N[C@@H](C)C(=O)N[C@@H](CCCNC(=N)N)C(=O)N[C@@H](C)C(=O)N[C@@H](C)C(=O)N[C@@H](CCC(N)=O)C(=O)N[C@@H](CCC(=O)O)C(=O)N[C@@H](Cc1ccccc1)C(=O)N[C@H](C(=O)N[C@@H](CCCCNC(=O)COCCOCCNC(=O)COCCOCCNC(=O)CC[C@H](NC(=O)CCCCCCCCCCCCCCCCC(=O)O)C(=O)O)C(=O)N[C@@H](Cc1c[nH]c2ccccc12)C(=O)N[C@@H](CC(C)C)C(=O)N[C@@H](CCS(C)(=O)=O)C(=O)N[C@@H](CC(=O)O)C(=O)N[C@H](C(N)=O)[C@@H](C)O)C(C)C` [TP702] (H-H[Aib]QGTFTSDYSKYLDARAAQEFVK([AEEA-AEEA-γGlu-C18 diacid])WL[Met(O2)]DT-NH2; N-terminus assumed), the values for the EC50 on human GLP1R (setting [3]), at human GCGR (setting [2]) and at human GCGR (setting [4]) were less than 5 nM, 0.35 nM and less than 5 nM, respectively. Besides, the “hGCGR/hGLP1R (hTone)” value at human GCGR is 1.4.
Turning to `CC(C)C[C@H](NC(=O)[C@H](CCCCN)NC(=O)[C@H](CCCCN)NC(=O)[C@H](CO)NC(=O)[C@H](Cc1ccc(O)cc1)NC(=O)[C@H](CCC(=O)O)NC(=O)[C@H](CO)NC(=O)[C@@H](NC(=O)[C@H](Cc1ccccc1)NC(=O)[C@@H](NC(=O)CNC(=O)[C@H](CCC(N)=O)NC(=O)C(C)(C)NC(=O)[C@@H](N)Cc1c[nH]cn1)[C@@H](C)O)[C@@H](C)O)C(=O)N[C@@H](CC(=O)O)C(=O)N[C@@H](C)C(=O)N[C@@H](CCCNC(=N)N)C(=O)N[C@@H](C)C(=O)N[C@@H](C)C(=O)N[C@@H](CCCCNC(=O)COCCOCCNC(=O)COCCOCCNC(=O)CC[C@H](NC(=O)CCCCCCCCCCCCCCCCC(=O)O)C(=O)O)C(=O)N[C@@H](CC(=O)O)C(=O)N[C@@H](Cc1ccccc1)C(=O)N[C@H](C(=O)N[C@@H](CCC(N)=O)C(=O)N[C@@H](Cc1c[nH]c2ccccc12)C(=O)N[C@@H](CC(C)C)C(=O)N[C@@H](CCS(C)(=O)=O)C(=O)N[C@@H](CC(=O)O)C(=O)N[C@H](C(N)=O)[C@@H](C)O)C(C)C` [TP703] (H-H[Aib]QGTFTSEYSKKLDARAAK([AEEA-AEEA-γGlu-C18 diacid])DFVQWL[Met(O2)]DT-NH2), the EC50 on human GLP1R (setting [1]) and at human GCGR (setting [2]) was greater than 19.8 nM in each case.
With `CC(C)C[C@H](NC(=O)[C@H](Cc1ccc(O)cc1)NC(=O)[C@H](CCCCN)NC(=O)[C@H](CO)NC(=O)[C@H](Cc1ccc(O)cc1)NC(=O)[C@H](CC(=O)O)NC(=O)[C@H](CO)NC(=O)[C@@H](NC(=O)[C@H](Cc1ccccc1)NC(=O)[C@@H](NC(=O)CNC(=O)[C@H](CCC(N)=O)NC(=O)C(C)(C)NC(=O)[C@@H](N)Cc1c[nH]cn1)[C@@H](C)O)[C@@H](C)O)C(=O)N[C@@H](CC(=O)O)C(=O)N[C@@H](C)C(=O)N[C@@H](CCCNC(=N)N)C(=O)N[C@@H](C)C(=O)N[C@@H](C)C(=O)N[C@@H](CCCCNC(=O)COCCOCCNC(=O)COCCOCCNC(=O)CC[C@H](NC(=O)CCCCCCCCCCCCCCCCC(=O)O)C(=O)O)C(=O)N[C@@H](CCC(=O)O)C(=O)N[C@@H](Cc1ccccc1)C(=O)N[C@H](C(=O)N[C@@H](CCC(N)=O)C(=O)N[C@@H](Cc1c[nH]c2ccccc12)C(=O)N[C@@H](CC(C)C)C(=O)N[C@@H](CCS(C)(=O)=O)C(=O)N[C@@H](CC(=O)O)C(=O)N[C@H](C(N)=O)[C@@H](C)O)C(C)C` [TP704] (H-H[Aib]QGTFTSDYSKYLDARAAK([AEEA-AEEA-γGlu-C18 diacid])EFVQWL[Met(O2)]DT-NH2; N-terminus assumed), the EC50 at human GLP1R (setting [3]) was less than 5 nM; at human GCGR (setting [2]), 0.27 nM; on human GCGR (setting [4]), less than 5 nM. The “hGCGR/hGLP1R (hTone)” value at human GCGR was found to be 0.7.
In the case of `CC(C)C[C@H](NC(=O)[C@H](Cc1ccc(O)cc1)NC(=O)[C@H](CCCCN)NC(=O)[C@H](CO)NC(=O)[C@H](Cc1ccc(O)cc1)NC(=O)[C@H](CC(=O)O)NC(=O)[C@H](CO)NC(=O)[C@@H](NC(=O)[C@H](Cc1ccccc1)NC(=O)[C@@H](NC(=O)CNC(=O)[C@H](CCC(N)=O)NC(=O)C(C)(C)NC(=O)[C@@H](N)Cc1c[nH]cn1)[C@@H](C)O)[C@@H](C)O)C(=O)N[C@@H](CC(=O)O)C(=O)N[C@@H](C)C(=O)N[C@@H](CCCNC(=N)N)C(=O)N[C@@H](C)C(=O)N[C@@H](C)C(=O)N[C@@H](CCCCNC(=O)COCCOCCNC(=O)COCCOCCNC(=O)CC[C@H](NC(=O)CCCCCCCCCCCCCCCCC(=O)O)C(=O)O)C(=O)N[C@@H](CC(=O)O)C(=O)N[C@@H](Cc1ccccc1)C(=O)N[C@H](C(=O)N[C@@H](CCC(=O)O)C(=O)N[C@@H](Cc1c[nH]c2ccccc12)C(=O)N[C@@H](CC(C)C)C(=O)N[C@@H](CCS(C)(=O)=O)C(=O)N[C@@H](CCCCN)C(=O)N[C@H](C(N)=O)[C@@H](C)O)C(C)C` [TP705] (H-H[Aib]QGTFTSDYSKYLDARAAK([AEEA-AEEA-γGlu-C18 diacid])DFVEWL[Met(O2)]KT-NH2; N-terminus assumed), the EC50 on human GLP1R (setting [1]) was 0.41 nM; on human GLP1R (setting [3]), less than 5 nM; on human GCGR (setting [4]) it was less than 5 nM. Moreover, the “hGCGR/hGLP1R (hTone)” value at human GCGR is recorded as 3.6.
Consider `CC(C)C[C@H](NC(=O)[C@H](Cc1ccc(O)cc1)NC(=O)[C@H](CCCCN)NC(=O)[C@H](CO)NC(=O)[C@H](Cc1ccc(O)cc1)NC(=O)[C@H](CC(=O)O)NC(=O)[C@H](CO)NC(=O)[C@@H](NC(=O)[C@H](Cc1ccccc1)NC(=O)[C@@H](NC(=O)CNC(=O)[C@H](CCC(N)=O)NC(=O)C(C)(C)NC(=O)[C@@H](N)Cc1c[nH]cn1)[C@@H](C)O)[C@@H](C)O)C(=O)N[C@@H](CC(=O)O)C(=O)N[C@@H](C)C(=O)N[C@@H](CCCNC(=N)N)C(=O)N[C@@H](C)C(=O)N[C@@H](C)C(=O)N[C@@H](CCCCNC(=O)COCCOCCNC(=O)COCCOCCNC(=O)CC[C@H](NC(=O)CCCCCCCCCCCCCCCCC(=O)O)C(=O)O)C(=O)N[C@@H](CCC(=O)O)C(=O)N[C@@H](Cc1ccccc1)C(=O)N[C@H](C(=O)N[C@@H](CCC(N)=O)C(=O)N[C@@H](Cc1c[nH]c2ccccc12)C(=O)N[C@@H](CC(C)C)C(=O)N[C@@H](CCS(C)(=O)=O)C(=O)N[C@@](C)(CC(=O)O)C(=O)N[C@H](C(N)=O)[C@@H](C)O)C(C)C` [TP713] (H-H[Aib]QGTFTSDYSKYLDARAAK([AEEA-AEEA-γGlu-C18 diacid])EFVQWL[Met(O2)][αMeD]T-NH2; N-terminus assumed), for which the 50% effective concentration (EC50) on human GLP1R (setting [1]) was 0.71 nM; at human GLP1R (setting [3]), less than 5 nM; at human GCGR (setting [4]), less than 5 nM. The “hGCGR/hGLP1R (hTone)” value at human GCGR was 2.2.
For the compound `CC(C)C[C@H](NC(=O)[C@H](Cc1ccc(O)cc1)NC(=O)[C@H](CCCCN)NC(=O)[C@H](CO)NC(=O)[C@H](Cc1ccc(O)cc1)NC(=O)[C@H](CC(=O)O)NC(=O)[C@H](CO)NC(=O)[C@@H](NC(=O)[C@H](Cc1ccccc1)NC(=O)[C@@H](NC(=O)CNC(=O)[C@H](CCC(N)=O)NC(=O)C(C)(C)NC(=O)[C@@H](N)Cc1c[nH]cn1)[C@@H](C)O)[C@@H](C)O)C(=O)N[C@@H](CC(=O)O)C(=O)N[C@@H](C)C(=O)N[C@@H](CCCNC(=N)N)C(=O)N[C@@H](C)C(=O)N[C@@H](C)C(=O)N[C@@H](CCCCNC(=O)COCCOCCNC(=O)COCCOCCNC(=O)CC[C@H](NC(=O)CCCCCCCCCCCCCCCCC(=O)O)C(=O)O)C(=O)N[C@@H](CC(=O)O)C(=O)N[C@@H](Cc1ccccc1)C(=O)N[C@H](C(=O)N[C@@H](CCC(N)=O)C(=O)N[C@@H](Cc1c[nH]c2ccccc12)C(=O)N[C@@H](CC(C)C)C(=O)N[C@@H](CCS(C)(=O)=O)C(=O)N[C@@](C)(CC(=O)O)C(=O)N[C@H](C(=O)O)[C@@H](C)O)C(C)C` [TP735] (H-H[Aib]QGTFTSDYSKYLDARAAK([AEEA-AEEA-γGlu-C18 diacid])DFVQWL[Met(O2)][αMeD]T-OH; N-terminus assumed), the EC50 at human GLP1R (setting [3]) and on human GCGR (setting [4]) was less than 5 nM each time. Further, the “hGCGR/hGLP1R (hTone)” value at human GCGR amounted to 1.4.
